Reference: patent US4175125A, “Method for treating methicillin resistant staphylococcus aureus” (Eli Lilly and Company, priority 1978, dated 1979)
≈ marks a conversion by molar mass, not a printed value. Read-outs that look alike come from different tables or passages of the source. Each block holds one compound with its values, some of them ahead of it.

Assays:
[1] = test system: methicillin-resistant Staphylococcus aureus; experiment: Gradient plate test (MIC) against methicillin-resistant Staphylococcus aureus; format: cell-based; conditions: Staphylococcus aureus, read-out: minimum inhibitory concentration (MIC)
Method: The method used is essentially that described by Bryson and Szybalski in 1952 (Science 116:45-46). The inoculum treatment method used for penicillin resistant Staphylococci was reported by Godzeski et al in Antimicrobial Agents and Chemotherapy, May, 1969, pp. 547-554.
A standard Falcon square plastic petri dish is used. A layer of agar (10 ml.) is poured into one of the square dishes, the dish tipped 5 mm. off the horizontal, and the agar layer allowed to harden in this position. This bottom layer of agar contains the antibiotic, the serum, and/or other material to be tested. The medium is Difco Penassay Agar containing 2 percent agar. We routinely used 4 ml. of human or horse serum for "serum-inactivation" testing. […] Therefore, serum is routinely added only to the bottom layer.
After the bottom, slanted layer of agar medium has hardened, the plate is placed flat and another 10 ml. of medium added and allowed to harden.
The inoculum of resistant Staphylococci, as described, is prepared by diluting the water suspension 1/50 in 0.25 percent agar in sterile water or saline. For Gram negative organisms, an overnight broth culture is diluted 1/50 in the 0.25 percent agar-water. This dilution is thoroughly shaken to evenly suspend the bacteria. To streak the plate, we use a 1 ml. pipet containing an aliquot of the final […] agar dilution. After a little practice, a smooth even stroke of inoculum can be laid down very rapidly. The trick is in the smoothness of the streak--it must be accomplished uniformly and quickly.
After 24 hours incubation at 35°-37° C. the plates are read by simply measuring the length of bacterial growth as a percentage of the entire streak distance which is then converted to the percent of antibiotic concentration in the plate.
Average values of duplicate measurements are calculated and the M.I.C.'s reported are average of 2 streaks on the plate and from 2 to 3 duplicate plates. Eight streaks can be easily placed on each plate. If sharp end points are not obtained, the middle concentration between the beginning of inhibition of the streak to the end of growth is measured. The concentration of the antibiotic under examination is varied from plate to plate in a series as follows: […]
This method of screening penicillins and cephalosporins is quite satisfactory. Control plates containing penicillin and staphcillin or prostaphlin, or other control antibiotic, are used daily for the resistant staphylococcal activity screen. The gradient plate method has shown differences between antibiotics that were not apparent by any other methods of screening. […] We believe that the gradient plate screen is more sensitive to small differences between related antibiotics than other methods and pictures of the plates can provide a permanent record. The method also lends itself readily to modification of specific purposes--e.g., cross gradients.
The compounds listed below are examples of compounds useful in the method of this invention. After the compound name there is given in parentheses, where tested, the minimum inhibitory concentrations (MIC) in micrograms per milliliter (μg/ml) for the compound in the above described gradient plate procedure test against methicillin-resistant Staphylococcus aureus, (in the absence of blood serum/in the presence of 20 percent blood serum).
and pharmaceutically acceptable salts thereof. The abbreviation "s.z." means skip zones.

[2] = test system: Staphylococcus aureus cultures; experiment: Agar dilution MIC, Example 13 compound vs methicillin resistant Staphylococcus aureus; format: cell-based; conditions: read-out: MIC
Source text: The table which follows gives the minimum inhibitory concentration (MIC) in micrograms of compound per milliliter of culture (μg/ml), in comparison with similar MIC values for the known antibiotics methicillin, cephalothin and cephaloridine against the same strains of bacteria.

[3] = in the presence of 20 percent blood serum

MIC ([1]; in the absence of blood serum): 0.8 µg/mL (≈ 1.63 µM)
MIC [1, 3]: 1 µg/mL
Compound: CC(=O)OCC1=C(C(=O)O)N2C(=O)C(NC(=O)CSc3cc(Cl)ccc3Cl)C2SC1 (stereo not shown) [Example 2, 7-(2,5-Dichlorophenylthioacetamido)-cephalosporanic acid]

MIC ([1]; in the absence of blood serum): 2 µg/mL (≈ 4.07 µM)
MIC [1, 3]: 8.7 µg/mL
Compound: CC(=O)OCC1=C(C(=O)O)N2C(=O)C(NC(=O)CSc3cc(Cl)cc(Cl)c3)C2SC1 (stereo not shown) [Example 3, 7-(3,5-Dichlorophenylthioacetamido)-cephalosporanic acid]

MIC ([2]; culture 3055 (control), Trypticase Soy Agar with 4.5% NaCl added (5% NaCl)): 1 µg/mL (≈ 2.63 µM)
MIC ([2]; culture 3055 (control), Trypticase Soy Agar, 0.5% NaCl): 1 µg/mL (≈ 2.63 µM)
MIC ([2]; culture 3130, Trypticase Soy Agar with 4.5% NaCl added (5% NaCl)): 16 µg/mL (≈ 42.1 µM)
MIC ([2]; culture 3130, Trypticase Soy Agar, 0.5% NaCl): 4 µg/mL (≈ 10.5 µM)
MIC ([2]; culture 3131, Trypticase Soy Agar with 4.5% NaCl added (5% NaCl)): 32 µg/mL (≈ 84.1 µM)
MIC ([2]; culture 3131, Trypticase Soy Agar, 0.5% NaCl): 4 µg/mL (≈ 10.5 µM)
MIC ([2]; culture 3132, Trypticase Soy Agar with 4.5% NaCl added (5% NaCl)): 8 µg/mL (≈ 21 µM)
MIC ([2]; culture 3132, Trypticase Soy Agar, 0.5% NaCl): 4 µg/mL (≈ 10.5 µM)
MIC ([2]; culture 3133, Trypticase Soy Agar with 4.5% NaCl added (5% NaCl)): 2 µg/mL (≈ 5.26 µM)
MIC ([2]; culture 3133, Trypticase Soy Agar, 0.5% NaCl): 2 µg/mL (≈ 5.26 µM)
MIC ([2]; culture 3134, Trypticase Soy Agar with 4.5% NaCl added (5% NaCl)): 32 µg/mL (≈ 84.1 µM)
MIC ([2]; culture 3134, Trypticase Soy Agar, 0.5% NaCl): 8 µg/mL (≈ 21 µM)
MIC ([2]; culture 3135, Trypticase Soy Agar with 4.5% NaCl added (5% NaCl)): 32 µg/mL (≈ 84.1 µM)
MIC ([2]; culture 3135, Trypticase Soy Agar, 0.5% NaCl): 4 µg/mL (≈ 10.5 µM)
MIC ([2]; culture 3136, Trypticase Soy Agar with 4.5% NaCl added (5% NaCl)): 64 µg/mL (≈ 168 µM)
MIC ([2]; culture 3136, Trypticase Soy Agar, 0.5% NaCl): 4 µg/mL (≈ 10.5 µM)
MIC ([2]; culture 3137, Trypticase Soy Agar with 4.5% NaCl added (5% NaCl)): 64 µg/mL (≈ 168 µM)
MIC ([2]; culture 3137, Trypticase Soy Agar, 0.5% NaCl): 8 µg/mL (≈ 21 µM)
MIC ([2]; culture 3138, Trypticase Soy Agar with 4.5% NaCl added (5% NaCl)): 32 µg/mL (≈ 84.1 µM)
MIC ([2]; culture 3138, Trypticase Soy Agar, 0.5% NaCl): 8 µg/mL (≈ 21 µM)
MIC ([2]; culture 3139, Trypticase Soy Agar with 4.5% NaCl added (5% NaCl)): 1 µg/mL (≈ 2.63 µM)
MIC ([2]; culture 3139, Trypticase Soy Agar, 0.5% NaCl): 2 µg/mL (≈ 5.26 µM)
MIC ([2]; culture H232 (control), Trypticase Soy Agar with 4.5% NaCl added (5% NaCl)): 1 µg/mL (≈ 2.63 µM)
MIC ([2]; culture H232 (control), Trypticase Soy Agar, 0.5% NaCl): 2 µg/mL (≈ 5.26 µM)
MIC ([2]; culture Havarmak 1136501, Trypticase Soy Agar with 4.5% NaCl added (5% NaCl)): 64 µg/mL (≈ 168 µM)
MIC ([2]; culture Havarmak 1136501, Trypticase Soy Agar, 0.5% NaCl): 8 µg/mL (≈ 21 µM)
MIC ([2]; culture S 61, Trypticase Soy Agar with 4.5% NaCl added (5% NaCl)): 32 µg/mL (≈ 84.1 µM)
MIC ([2]; culture S 61, Trypticase Soy Agar, 0.5% NaCl): 4 µg/mL (≈ 10.5 µM)
MIC ([2]; culture Seattle 966, Trypticase Soy Agar with 4.5% NaCl added (5% NaCl)): 16 µg/mL (≈ 42.1 µM)
MIC ([2]; culture Seattle 966, Trypticase Soy Agar, 0.5% NaCl): 4 µg/mL (≈ 10.5 µM)
Compound: COc1cccc(OC)c1C(=O)N[C@@H]1C(=O)N2[C@@H]1SC(C)(C)[C@@H]2C(=O)O [Methicillin, methicillin]
